Reference: US20100256145A1, “USE OF KCNQ POTASSIUM CHANNEL OPENERS FOR REDUCING SYMPTOMS OF OR TREATING DISORDERS OR CONDITIONS WHEREIN THE DOPAMINERGIC SYSTEM IS DISRUPTED” (H. LUNDBECK A/S, priority 2007, published 2010)
Marks after values point to notes of the source that are not given here.

Columns and labels:
basal locomotor activity = assay: Basal locomotor activity inhibition (motility inhibition) in the rat; format: in vivo; settings: basal locomotor activity without stimulant (sedative properties), std. dev. in brackets
Procedure: Subjects. Male Wistar rats (Taconic, Denmark) weighing 170-240 g are used. The animals are housed under a 12-hr light/dark cycle under controlled conditions for regular in-door temperature (21±2° C.) and humidity (55±5%) with food and tap water available ad libitum.
Experimental procedure. The experiment is made in normal light conditions in an undisturbed room. […] Immediately after injection of the stimulant, the rats are placed individually in the test cages that are placed in a U-frame, equipped with 4 infrared light sources and photocells. The light beams cross the cage 4 cm above the cage floor. Recording of a motility count requires interruption of adjacent light beams, thus avoiding counts induced by stationary movements of the rat. Motility (counts) is recorded for a period of 2 hours. […] The 100 percent effect of stimulant drug is accordingly calculated to be total motility counts minus baseline. […] The percent responses are converted to percent inhibition from which ED50 values are calculated by means of log-probit analyses. In a parallel set of data, the potential sedative properties (exemplified by basal locomotor activity inhibition) of the test compounds are evaluated using essentially the same procedure with the exception of not administering the stimulant drug at the initiation of locomotor assessment.

[1] = tested on: dopaminergic neurons in the ventral tegmental area; assay: Spontaneous DA cell firing in the VTA of anaesthetised rats (extracellular single-cell recordings); settings: mean ± SEM
Procedure: Subjects. Male Wistar rats (Harlan, The Netherlands) weighing 270-340 g are used. The animals are housed under a 12-hr light/dark cycle under controlled conditions for regular in-door temperature (21±2° C.) and humidity (55±5%) with food and tap water available ad libitum.
Administration of compound. […] These i.v. doses match the s.c. dose range of 0-10 mg/kg.
Statistical analysis. Drug effects are assessed by statistical comparison of the mean firing rate calculated from the 2-3 min period immediately before the first drug administration (baseline) to the mean firing rate calculated from at least 60 s at the maximal drug effect. Data are analysed statistically by a one-way analysis of variance (ANOVA) followed by Student-Newman-Keuls post hoc test. A p-value less than 0.05 is considered significant.

[2] = tested on: d-amphetamine induced hyperactivity in rats; assay: Amphetamine-induced hyperactivity in the rat (amphetamine antagonism); format: in vivo; settings: read-out: Amphetamine antagonism ED50 (mg/kg) ± std. dev.
Source text: Subjects. Male Wistar rats (Taconic, Denmark) weighing 170-240 g are used. […] Eight rats are used at each dose level and in the parallel control group receiving the vehicle to the test compound plus d-amphetamine and the group receiving vehicle injections only.

[3] = tested on: social behaviours in the Mutual Resident Intruder rat test; assay: Mutual Resident Intruder rat test; settings: for % of time Agonistic behaviour: sum of defensive and aggressive behaviour
Procedure: Subjects. 5 week old male Wistar rats (Harlan, Germany) were used. The animals were housed in groups of four animals per cage and kept under a 12 h/12 h light dark rhythm (start of the dark phase at 2:00 p.m., CET), at 20° C. room temperature and 60% humidity. During the whole study, standard diet and tap water was provided ad libitum.
Experimental procedure. […] Therefore, half of the cage is the home territory of each animal. At test time, the wall is removed from the cage so that the animals can interact with each other for 15 minutes. Both animals are from the same test group. The cage is illuminated by dim red light. The test starts 1 hour after beginning of the dark phase. All animals are marked individually by means of black symbols on their back. Behaviour is registered by video. Each animal is tested once.
Analyses. In both the TE test and the MRI test, the portion of time (%) spent in non-social, friendly, defensive, aggressive or agonistic (sum of defensive and aggressive behaviour) behaviour was compared across the experimental groups against the relevant control group by means of Analysis of Variance (ANOVA) (one-factor).

[4] = tested on: conditioned avoidance response; assay: Conditioned avoidance response in rats; format: in vivo, rat
Procedure: Subjects. Male Wistar rats (Taconic, Denmark) weighing 150 g at the beginning of the study are used. The rats are housed in pairs and maintained on a 12 h light/dark cycle (lights on 06:00). The animals are fed once daily (approx. 6 pellets/rat) in order to keep the rats at 80% of their free-feeding weight. Water is available ad libitum. Temperature (21±1° C.) and relative humidity (55±5%) are automatically controlled.
Experimental procedure. Conditioned avoidance testing is conducted using four automated shuttle-boxes (ENV-010M, MED-Associates) each placed in a sound-attenuated chamber. Each box is divided into two compartments by a partition with an opening. The position of the animal and crossings from one compartment to the other are detected by two photocells placed on either side of the dividing wall. Upon presentation of the conditioned stimuli (CS), tone and light, the animals have 10s to cross to the other compartment of the shuttle-box in order to turn the CS off (end the trial) and avoid the appearance of the unconditioned stimulus (UCS). If the rat remains in the same compartment for more than 10s, the UCS is presented as 0.5 mA scrambled foot-shocks until escape is performed or 10s in maximal duration. The following behavioural variables are evaluated: avoidance (response to CS within 10s); escape (reponse to CS+UCS); escape failures (failure to respond); intertrial crosses and locomotor activity. The rats are habituated to the shuttle-box 3 min before each test session. During training each test session consists of 30 trials with intertrial intervals varying randomly between 20s and 30s. Training is carried out until the rats display an avoidance of 80% or more, on 3 consecutive days. A test is preceded by a pre-test the day before giving rise to a baseline value for each animal, thus the animals serve as their own control. Seven to eight rats are used at each dose level. A parallel control group receiving the vehicle of the test compound is also included.
Administration of compound. […] All compounds are dissolved in a vehicle of 10% 2-hydroxy-propyl-beta-cyclodextrin (isotonic with glucose, pH 5-7).
Statistical analyses. The effects of compounds on avoidance and escape failure behaviours are statistically evaluated by means of two-way repeated measures ANOVA followed by post hoc comparisons (Student-Newman-Keuls Method) when appropriate. P-levels <0.05 are considered statistically significant.

baseline motility = assay: Baseline motility in mice (vehicle-pretreated, vehicle-challenged); format: in vivo, mouse; settings: s.c., Std. Dev. in brackets
Procedure: Subjects. Male NMRI mice (Charles River) weighing approx. 35 g are used. […] 12 mice are used pr experimental group.
Experimental procedure. All mice are pre-treated once daily for five days with either d-amphetamine sulphate (2.5 mg/kg s.c.) or saline (10 ml/kg). For the 17 days between the last day of pre-treatment and the test day, the animals are kept in their homecage receiving the care as described above. The experiment is performed under normal light conditions in an undisturbed room. The mice are treated with test substance or vehicle and placed individually in the test cages for 30 min. The mice are then challenged with D-amphetamine sulphate (1.25 mg/kg s.c.) or saline (5 ml/kg) and replaced in the test-cage and data acquisition is begun. 5×8 infrared light sources and photocells interspaced by 4 cm monitor the locomotor activity. The light beams cross the cage 1.8 cm above the bottom of the cage.
Administration of compounds.
Data analyses. […] Similarly an ED50 for inhibiting baseline motility is calculated by expressed the motility response in vehicle-pretreated, vehicle-challenged, drug-treated animals relative to the baseline motility response. A therapeutic index value is subsequently calculated by dividing the first ED50 by the second.

[5] = target: T1, noradrenergic α1A receptor (UniProt P18130); assay: 3H-Prazosin binding assay, receptor expressed in baby hamster kidney cells; settings: read-out: Ki, affinity towards noradrenergic α1A receptors
T1 sequence (P18130 1-466): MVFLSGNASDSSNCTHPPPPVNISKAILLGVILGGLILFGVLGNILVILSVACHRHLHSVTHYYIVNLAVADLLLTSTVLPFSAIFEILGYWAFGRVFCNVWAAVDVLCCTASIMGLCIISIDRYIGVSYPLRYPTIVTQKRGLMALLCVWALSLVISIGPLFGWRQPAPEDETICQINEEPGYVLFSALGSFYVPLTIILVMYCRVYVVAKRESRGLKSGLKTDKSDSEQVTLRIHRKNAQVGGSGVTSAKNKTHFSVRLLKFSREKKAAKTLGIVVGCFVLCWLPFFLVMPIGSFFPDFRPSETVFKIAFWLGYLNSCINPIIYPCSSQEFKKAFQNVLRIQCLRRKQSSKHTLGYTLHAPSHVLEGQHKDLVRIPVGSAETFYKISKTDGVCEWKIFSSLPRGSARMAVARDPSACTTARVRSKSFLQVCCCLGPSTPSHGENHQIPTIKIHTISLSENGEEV

[6] = 2 mg/kg s.c. 30 min before test
[7] = 10 mg/kg s.c. 30 min before test
[8] = Rattus norvegicus, sc, read-out: % inhibition of avoidance (Std. dev.) Relative to baseline

CCOC(=O)Nc1ccc(NCc2ccc(F)cc2)cc1N [Compound 1, reference compound] was tested, and the “Motility inhibition ED50 (mg/kg) ± std. dev.” value (basal locomotor activity) was over 8.1 mg/kg, the “Spontaneous DA cell firing rate in the VTA” value ([1]; cumulated dose 0.3 mg/kg i.v.) was 95.4 ± 5.0 (4) percentage of baseline firing rate and the “Spontaneous DA cell firing rate in the VTA” value ([1]; cumulated dose 1.0 mg/kg i.v.) was 90.5 ± 4.6 (5) percentage of baseline firing rate. The “Spontaneous DA cell firing rate in the VTA” value ([1]; cumulated dose 2.0 mg/kg i.v.) was 81.1 ± 5.1 (5) percentage of baseline firing rate, the “Spontaneous DA cell firing rate in the VTA” value ([1]; cumulated dose 4.0 mg/kg i.v.) was 67.1 ± 3.7 (4) percentage of baseline firing rate and the “Spontaneous DA cell firing rate in the VTA” value ([1]; cumulated dose 6.0 mg/kg i.v.) was 60.6 ± 0.7 (2) percentage of baseline firing rate. The ED50 [2] was 2.3 mg/kg, the “% of time Aggressive behaviour” value [3, 6] was 16.1 % of time and the “% of time Defensive behaviour” value [3, 6] was 16.3 % of time. For the same molecule, the “% of time Friendly behaviour” value [3, 6] was 3.4 % of time, the “% of time Non-social behaviour” value [3, 6] was 64.2 % of time and the “% of time Agonistic behaviour” value [3, 6] was 32.4 % of time. For the same molecule, the “% of time Aggressive behaviour” value [3, 7] was 4.2*** % of time, the “% of time Defensive behaviour” value [3, 7] was 3.6*** % of time and the “% of time Friendly behaviour” value [3, 7] was 4.9* % of time. The “% of time Non-social behaviour” value [3, 7] was 87.3*** % of time, the “% of time Agonistic behaviour” value [3, 7] was 7.8*** % of time and the inhibition at 5 mg/kg [4, 8] was 1%. The inhibition at 10 mg/kg [4, 8] was 59%, the “Escape failures (effect on motor performance)” value ([4]; rats, all tested doses (2.5-10 mg/kg s.c.), data not shown) was “None of the tested doses cause any incidences of escape failures” and the “Inhibition of baseline motility, ED50” value (baseline motility) was 7.6 (1.3) mg/kg. For the same molecule, the Ki [5] was 2000 nM.
